Measurements reported in PubChem BioAssay (NCI).
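GI50: concentration for 50% inhibition of growth. TGI marks complete inhibition of growth.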

How the values were obtained:
Experiment in all cases: NCI-60 cell line screen, 384-well format
MDA-MB-231 breast = tested on: MDA-MB-231 breast
NCI-H322M lung = tested on: NCI-H322M lung
U251 glioblastoma = tested on: U251 glioblastoma
ACHN renal = tested on: ACHN renal
IGROV1 ovarian = tested on: IGROV1 ovarian
SF-295 CNS = tested on: SF-295 CNS
SR leukemia = tested on: SR leukemia
HOP-62 NSCLC = tested on: HOP-62 NSCLC
OVCAR-8 ovarian = tested on: OVCAR-8 ovarian
OVCAR-4 ovarian = tested on: OVCAR-4 ovarian
MALME-3M melanoma = tested on: MALME-3M melanoma
PC-3 prostate = tested on: PC-3 prostate
SK-OV-3 ovarian = tested on: SK-OV-3 ovarian

CC(C)(O)C1CCC(Nc2ccc3ncc(-c4cccc(C(F)(F)F)c4)n3n2)CC1 (stereo unspecified) was tested. Which GI50 (MDA-MB-231 breast) did it give?
The GI50 was 1130 nM.

What about the TGI (MDA-MB-231 breast) of the same compound?
Its TGI is 3420 nM.

And the GI50 (NCI-H322M lung)?
The GI50 was 1730 nM.

What about the TGI (NCI-H322M lung) of the same compound?
Its TGI is 3930 nM.

What about the GI50 (U251 glioblastoma) of the same compound?
The GI50 was 1320 nM.

And the TGI (U251 glioblastoma)?
The TGI was 2830 nM.

What about the GI50 (ACHN renal) of the same compound?
Its GI50 is 1630 nM.

What about the TGI (ACHN renal) of the same compound?
Its TGI is 5010 nM.

What about the GI50 (IGROV1 ovarian) of the same compound?
The GI50 was 1910 nM.

And the TGI (IGROV1 ovarian)?
Its TGI is 5230 nM.

What about the GI50 (SF-295 CNS) of the same compound?
The GI50 was 1050 nM.

What about the TGI (SF-295 CNS) of the same compound?
Its TGI is 2400 nM.

What about the GI50 (SR leukemia) of the same compound?
Its GI50 is 588 nM.

What about the TGI (SR leukemia) of the same compound?
Its TGI is 1690 nM.

And the GI50 (HOP-62 NSCLC)?
Its GI50 is 1510 nM.

What about the TGI (HOP-62 NSCLC) of the same compound?
Its TGI is 3600 nM.

And the GI50 (OVCAR-8 ovarian)?
The GI50 was 1770 nM.

And the TGI (OVCAR-8 ovarian)?
Its TGI is 4710 nM.

And the GI50 (OVCAR-4 ovarian)?
The GI50 was 994 nM.

What about the TGI (OVCAR-4 ovarian) of the same compound?
The TGI was 4820 nM.

And the GI50 (MALME-3M melanoma)?
Its GI50 is 833 nM.

And the TGI (MALME-3M melanoma)?
The TGI was 2950 nM.

What about the GI50 (PC-3 prostate) of the same compound?
Its GI50 is 1370 nM.

What about the TGI (PC-3 prostate) of the same compound?
Its TGI is 3320 nM.

What about the GI50 (SK-OV-3 ovarian) of the same compound?
The GI50 was 1120 nM.

And the TGI (SK-OV-3 ovarian)?
The TGI was 2890 nM.
